The values below come from patent US20230263783A1, “CANCER TREATMENT BY COMBINED INHIBITION OF POLO-LIKE KINASE AND MICROTUBULE POLYMERIZATION” (Massachusetts Institute of Technology, priority 2022, published 2023).

Data set [1] relates to C4-2 castrate resistant prostate cancer (CRPC) cells. In words: Relative viability after drug dose matrix (CellTiter-Glo, Bliss Independence) in C4-2 cells. The class given is cell-based. Particulars: for concentrations at which the more than additive reduction occurs / reduction in cancer cell viability of maytansinoid with Plk1 inhibitor versus each alone: C4-2 cells, with onvansertib; for reduction in cancer cell viability of maytansinoid with Plk1 inhibitor versus each alone: five days, free agents, FIGS. 5A and 5B. The method, then: All cell lines were cultured in a humidified incubator at 37° C. and with 5% CO2, were maintained sub-confluent and used for no more than 20 passages. Media was supplemented with 10% fetal bovine serum (FBS), contained 2 mM glutamine and lacked antibiotics, unless otherwise noted. A549, BT-20, CCD-1112sk, CCD-18co, CFPAC1, HCT 116, HeLa, HT-29, HT55, MCF7, MDA-MB-157, MDA-MB-231, MDA-MB-415, MDA-MB-436, MDA-MB-453, MDA-MB-468, SW48, T98G, U-2 OS, U-87 MG, CAOV3, COV362, and JIMT1 cells were grown in DMEM; 22RV1, AU565, C4-2, CAL33, COL0205,HCC38, HCT-15, KYSE150, LNCaP, LOVO, NCI-H1299, PC-3, ZR-75-1, HCC1419, HCC1569, HCC1954, ZR7530, OVCAR-4, OVCAR8 cells were grown in RPMI 1640; HT1197, HT1376, J82, UMUC3 cells were grown in MEM; OV90, TOV122D, TOV21G cells were grown in 1:1 MCDB105:Medial99 15% FBS; 59M, OAW28, OAW42 cells were grown in Advanced DMEM 0.023 IU/ml insulin; ES2, SKOV3 cells were grown in McCoy's 5A; JHOS2, JHOS4 cells were grown in 1:1 DMEM:HamF12; HUVEC cells were grown in EBM with EGM™-2 BULLETKIT™
For dose response experiments and experiments that examine synergy as a measure of change in relative viability, cells were grown in 384-well plates in triplicate. The following day the cells were subjected to a drug dose matrix that consisted of increasing concentrations of a Plk inhibitor, increasing concentrations of a microtubule polymerization inhibitor, and all pairwise combinations. Drugs were dissolved in DMSO and diluted in the appropriate cell growth media while maintaining a constant final concentration of DMSO. After five days, relative viability was assessed using […]-GLO™ (Promega) Luminescent Cell Viability Assay according to the manufacturer's recommendations. Luminescence was measured using an […]™ M200 Pro plate reader (Tecan Group Ltd.). […] The dose response plots (for example FIG. 1A) show sensitivity to increasing concentrations of a microtubule polymerization inhibitor in the absence or presence of a constant amount of Plk inhibitor. Bars represent the standard error of the mean. The concentration of Plk inhibitor chosen to presented was based on a ˜20-30% reduction of viability when that drug was used at that dose in isolation. The entire amount of greater-than-additive response observed in the dose matrix is the integrated volume between the observed and expected surfaces generated by the response matrix and is also known as Bliss Volume. Bliss Volume synergy metrics are presented in FIG. 3 as the fractional change in volume between the expected and observed response surfaces.
A general note: ATP-based viability assays read luminescence as a measure of living cells.

For data set [2], the system named is Her2+ breast cancer cell lines. In words: Viability dose matrix in panel of six Her2+ breast cancer cell lines. The class given is cell-based. The following applies: DM1 with onvansertib, five days, majority of six cell lines, FIGS. 8A-8F. The method, then: (§1) All cell lines were cultured in a humidified incubator at 37° C. and with 5% CO2, were maintained sub-confluent and used for no more than 20 passages. Media was supplemented with 10% fetal bovine serum (FBS), contained 2 mM glutamine and lacked antibiotics, unless otherwise noted. […]
(§2) For dose response experiments and experiments that examine synergy as a measure of change in relative viability, cells were grown in 384-well plates in triplicate. […] After five days, relative viability was assessed using […]-GLO™ (Promega) Luminescent Cell Viability Assay according to the manufacturer's recommendations. Luminescence was measured using an […]™ M200 Pro plate reader (Tecan Group Ltd.). […]

The conditions of data set [3]: cited from earlier work.
For data set [4], the system named is panel of >50 other kinases. The following applies: in vitro; cited from earlier work.
Data set [5] relates to HCT116, NCI-H460, and taxane-resistant CXB1 colon carcinoma xenografts. The arrangement: dose or concentration left out as unconfirmed. Particulars: cited from earlier work.
The subject of data set [6] is Her2+ trastuzumab-resistant breast cancer. The following applies: via CDK1-dependent phosphorylation and inactivation of Bcl-2/xL; cited from earlier work.
The test system of data set [7] is variety of tumors, including those that express the multidrug resistance (MDR) phenotype. The following applies: read-out: IC50 against a variety of tumors; cited from earlier work.
The test system of data set [8] is bladder cancer cell lines. Nature of the data set: Viability dose matrix in panel of four bladder cancer cell lines. Format: cell-based. The following applies: MMAE with onvansertib, five days, FIGS. 7A-7D. The method, then:
as §1, §2

The subject of the next data set is UMUC3. In words: Viability dose matrix in UMUC3 bladder cancer cells. Particulars: MMAE with onvansertib, five days, FIG. 7D. The class given is cell-based. The method, then:
as §1, §2

The test system of data set [9] is T47D cells. The following applies: read-out: GI50, cell proliferation; cited from earlier work.
The test system of data set [10] is T47D cells. Particulars: read-out: EC50 for caspase activation; cited from earlier work.
The conditions of data set [11]: relative to 2-ME; cited from earlier work.
Data set [12] has as its system ovarian cancer cell lines. In words: Viability dose matrix in panel of 14 ovarian cancer cell lines. The class given is cell-based. The following applies: DM4 with onvansertib, five days, FIGS. 6A-6N. The method, then: as §1, §2
The test system of data set [13] is growth factor activated endothelial cells. Particulars: cited from earlier work.
The conditions of data set [14]: oral administration; cited from earlier work.

Where a SMILES comes first, the peptide text is derived from it. [ ]: non-standard residue; d: D form. The star is where a group is joined. Dolaproine = CO[C@@H]([C@@H]1CCCN1)[C@@H](C)C(=O)O; Dil = CC[C@H](C)[C@H](NC)[C@@H](CC(=O)O)OC; X1 = C[C@@H](N*)[C@@H](O)c1ccccc1; NMeV = CN[C@H](C(=O)O)C(C)C

Consider `COc1cc2cc(c1Cl)N(C)C(=O)C[C@H](OC(=O)[C@H](C)N(C)C(=O)CCS)C1(C)O[C@H]1[C@H](C)[C@@H]1C[C@@](O)(NC(=O)O1)[C@H](OC)/C=C/C=C(\C)C2` (stereo partly shown) [DM1], for which, in data set [1], the “concentrations at which the more than additive reduction occurs” value is reported as “sub-nanomolar” and the “reduction in cancer cell viability of maytansinoid with Plk1 inhibitor versus each alone” value is given as “more than the additive reduction”. The “response to combined Plk1 inhibitor and DM1” value in data set [2] was “greater than additive response”.
For the compound `CC[C@@H]1C(=O)N(C)c2cnc(Nc3ccc(C(=O)N[C@H]4CC[C@H](N5CCN(CC6CC6)CC5)CC4)cc3OC)nc2N1C(C)C` [BI6727], in data set [1] (each Plk1 inhibitor in combination with TH588, relative viability), the “effect of the combination of TH588 with a Plk1 inhibitor” value is given as “more than additive”. Besides, the “recommended dose for further development” value in data set [3] (advanced solid tumors, i.v. once every 3 weeks, based on overall tolerability) is given as 300 mg. Moreover, the MTD in [3] (advanced solid tumors, i.v. once every 3 weeks) is on record as 400 mg. For the same compound, the “MTD in combination with afatinib” value in data set [3] (advanced solid tumors) was 300 mg. Besides, the “inhibitory activity against a panel of >50 other kinases” value in data set [4] is on record as “no inhibitory activity”. Moreover, the “growth of human carcinoma xenografts” value in data set [5] was “significantly inhibits the growth”. Also, the “effect on T-DM1 resistance” value in data set [6] is listed as “overcomes T-DM1 resistance”.
The IC50 is the midpoint of a concentration-inhibition curve. Take `COc1ccc(NS(=O)(=O)c2c(F)c(F)c(F)c(F)c2F)cc1F` [T138067]: the IC50 in data set [7] is 11 to 165 nM.
As to `CC[C@H](C)[C@@H]([C@@H](CC(=O)N1CCC[C@H]1[C@H](OC)[C@@H](C)C(=O)N[C@H](C)[C@@H](O)c1ccccc1)OC)N(C)C(=O)[C@@H](NC(=O)[C@@H](NC)C(C)C)C(C)C` [MMAE, monomethyl auristatin E] (H-[NMeV]V[Dil][Dolaproine]-X1), the “response to the combination in bladder cancer cell lines” value in data set [8] is “Varying amounts of greater than additive responses”. Besides, the “response to the combination in UMUC3” value with UMUC3 is “very notable response”.
A word on the EC50: it is the concentration giving half of the maximal effect. `COc1ccc(N(C)c2nc(Cl)nc3ccccc23)cc1` [MPI-0441138]: the GI50 in the data set on T47D cells [9] is 2 nM. Moreover, in the data set on T47D cells [10], the 50% effective concentration (EC50) is 2 nM.
As for `COc1cc2c(cc1O)CC[C@@H]1[C@@H]2CC[C@]2(C)C(=O)CC[C@@H]12` [2-methoxyestrone], in data set [11], the “loss in activity in vitro on oxidation of 2-ME to 2-methoxyestrone” value is 10-to 100 fold.
In the case of `COc1cc2cc(c1Cl)N(C)C(=O)C[C@H](OC(=O)[C@H](C)N(C)C(=O)CCC(C)(C)S)C1(C)O[C@H]1[C@H](C)[C@@H]1C[C@@](O)(NC(=O)O1)[C@H](OC)/C=C/C=C(\C)C2` (stereo partly shown) [DM4], in data set [1], the “concentrations at which the more than additive reduction occurs” value is given as “sub-nanomolar” and the “reduction in cancer cell viability of maytansinoid with Plk1 inhibitor versus each alone” value was “more than the additive reduction”. Further, the “cell lines with greater than additive responses to the drug combination” value in data set [12] is on record as “Ten of fourteen”.
Consider `COc1cc(C(=O)c2c(C)oc3c(O)c(OC)ccc23)cc(OC)c1OC` [BNC-105], for which the “selectivity for growth factor activated endothelial cells compared to quiescent HUVECs” value in data set [13] is 81 fold.
Turning to `COc1ccc(S(=O)(=O)Nc2cccnc2Nc2ccc(O)cc2)cc1` [ABT-751], the “overall mean Tmax” value in [14] is listed as “about 2 h”. Also, the maximum tolerated dose in data set [3] (daily schedule, phase I) is recorded as 250 mg/day.
